Results taken from article PMC10920384 (Heliyon, 2024).
Marks after values point to notes of the source that are not given here.

Each compound was assayed on α-glucosidase from Saccharomyces cerevisiae (assay: α-Glucosidase inhibitory assay). Settings: 10 μg/mL; mean ± SD, N = 3.
Format: biochemical

| % Inhibition at 10 μg/mL (α-glucosidase) [%] | SMILES |
| --- | --- |
| 18.40 ± 1.39 | CC(C)=CCCC(C)=CCCC(C)=CCc1c[nH]c2ccccc12 [Compound 9, 3-Farnesyl indole] |
| 28.13 ± 1.46 | COc1cc2c(c(O)c1OC)C(=O)C[C@@H](c1ccccc1)O2 [Compound 10, onysilin] |

The remaining lines, values behind:

| SMILES | % Inhibition at 10 μg/mL (α-glucosidase) [%] |
| --- | --- |
| COc1cc(OC)c(C(=O)/C=C/c2ccccc2)c(O)c1O [Compound 4, 2′,3′-dihydroxy-4′,6′-dimethoxychalcone] | 38.04 ± 1.10 |
| O=c1cc(-c2ccccc2)oc2cc(O)cc(O)c12 [Compound 5, chrysin] | 27.31 ± 1.04 |
| COc1cc(OC)c2c(c1O)OC(c1ccccc1)CC2=O (stereo not shown) [Compound 7, 8-hydroxy-5,7-dimethoxyflavanone] | 34.57 ± 1.43 |
| O=C1C[C@@H](c2ccccc2)Oc2cc(O)cc(O)c21 [Compound 8, pinocembrin] | 37.30 ± 1.03 |

Same assay, conditions: mean ± SD, N = 3

| IC50 (α-glucosidase inhibition) [µg/mL] | SMILES |
| --- | --- |
| >10 | CC(C)=CCCC(C)=CCCC(C)=CCc1c[nH]c2ccccc12 [Compound 9, 3-Farnesyl indole] |
| >10 | COc1cc2c(c(O)c1OC)C(=O)C[C@@H](c1ccccc1)O2 [Compound 10, onysilin] |

The remaining lines, values behind:

| SMILES | IC50 (α-glucosidase inhibition) [µg/mL] |
| --- | --- |
| COc1cc(OC)c(C(=O)/C=C/c2ccccc2)c(O)c1O [Compound 4, 2′,3′-dihydroxy-4′,6′-dimethoxychalcone] | >10 |
| O=c1cc(-c2ccccc2)oc2cc(O)cc(O)c12 [Compound 5, chrysin] | >10 |
| COc1cc(OC)c2c(c1O)OC(c1ccccc1)CC2=O (stereo not shown) [Compound 7, 8-hydroxy-5,7-dimethoxyflavanone] | >10 |
| O=C1C[C@@H](c2ccccc2)Oc2cc(O)cc(O)c21 [Compound 8, pinocembrin] | >10 |

What follows are compounds tested against dipeptidyl peptidase-IV (DPP-IV) from porcine kidney (Sus scrofa, UniProt P22411) (assay: Dipeptidyl peptidase-IV). Settings: not given.
Format: biochemical

dipeptidyl peptidase-IV (DPP-IV) from porcine kidney, sequence (P22411 whole entry): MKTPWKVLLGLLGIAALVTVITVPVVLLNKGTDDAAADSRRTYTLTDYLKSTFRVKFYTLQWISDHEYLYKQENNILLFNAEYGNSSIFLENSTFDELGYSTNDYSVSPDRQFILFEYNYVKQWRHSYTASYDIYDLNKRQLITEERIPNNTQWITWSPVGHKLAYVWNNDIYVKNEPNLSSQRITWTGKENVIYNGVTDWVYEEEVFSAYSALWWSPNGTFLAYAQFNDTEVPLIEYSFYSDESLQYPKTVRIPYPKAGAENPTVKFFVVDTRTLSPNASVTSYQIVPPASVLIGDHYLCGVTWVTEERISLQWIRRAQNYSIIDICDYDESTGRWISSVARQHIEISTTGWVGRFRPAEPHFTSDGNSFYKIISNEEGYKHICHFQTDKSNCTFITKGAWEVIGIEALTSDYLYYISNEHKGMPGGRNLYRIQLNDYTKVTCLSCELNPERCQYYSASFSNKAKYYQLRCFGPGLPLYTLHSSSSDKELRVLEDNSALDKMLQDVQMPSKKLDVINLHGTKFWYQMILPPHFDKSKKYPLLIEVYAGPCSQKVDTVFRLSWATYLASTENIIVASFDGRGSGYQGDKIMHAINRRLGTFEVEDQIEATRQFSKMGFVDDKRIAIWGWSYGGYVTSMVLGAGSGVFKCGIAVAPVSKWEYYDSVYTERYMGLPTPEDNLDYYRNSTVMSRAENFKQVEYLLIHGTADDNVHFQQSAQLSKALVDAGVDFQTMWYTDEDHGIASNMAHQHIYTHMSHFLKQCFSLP

| IC50 [µM] | SMILES |
| --- | --- |
| > 197 | O=c1cc(-c2ccccc2)oc2cc(O)cc(O)c12 [Compound 5, chrysin] |
| > 166 | COc1cc(OC)c2c(c1O)OC(c1ccccc1)CC2=O (stereo not shown) [Compound 7, 8-hydroxy-5,7-dimethoxyflavanone] |
| > 195 | O=C1C[C@@H](c2ccccc2)Oc2cc(O)cc(O)c21 [Compound 8, pinocembrin] |
| > 156 | CC(C)=CCCC(C)=CCCC(C)=CCc1c[nH]c2ccccc12 [Compound 9, 3-Farnesyl indole] |

Same assay, conditions: 50 μg/mL; mean ± SD, N = 3

| % Inhibition at 50 μg/mL (DPP-IV) | SMILES |
| --- | --- |
| 97.37 ± 1.01 ^a % | COc1cc(OC)c(C(=O)/C=C/c2ccccc2)c(O)c1O [Compound 4, 2′,3′-dihydroxy-4′,6′-dimethoxychalcone] |
| 24.54 ± 2.38% | COc1cc2c(c(O)c1OC)C(=O)C[C@@H](c1ccccc1)O2 [Compound 10, onysilin] |

Same assay, conditions: mean ± SD, N = 3

| IC50 (DPP-IV inhibition) [µg/mL] | SMILES |
| --- | --- |
| >50 | COc1cc2c(c(O)c1OC)C(=O)C[C@@H](c1ccccc1)O2 [Compound 10, onysilin] |

Same assay, conditions: read-out: % Inhibition at 50 μg/mL (DPP-IV)

| inhibition at 50 µg/mL [%] | SMILES |
| --- | --- |
| 27.1 ± 0.73 | CC(C)=CCCC(C)=CCCC(C)=CCc1c[nH]c2ccccc12 [Compound 9, 3-Farnesyl indole] |
| 77.6 ± 1.18 | CC[C@H](C)[C@H](N)C(=O)N1CCC[C@H]1C(=O)N[C@H](C(=O)O)[C@@H](C)CC [Diprotin A, diprotin A, reference compound] |

More lines, now with the values behind:

| SMILES | inhibition at 50 µg/mL [%] |
| --- | --- |
| O=c1cc(-c2ccccc2)oc2cc(O)cc(O)c12 [Compound 5, chrysin] | 41.2 ± 1.03 |
| COc1cc(OC)c2c(c1O)OC(c1ccccc1)CC2=O (stereo not shown) [Compound 7, 8-hydroxy-5,7-dimethoxyflavanone] | 27.8 ± 2.96 |
| O=C1C[C@@H](c2ccccc2)Oc2cc(O)cc(O)c21 [Compound 8, pinocembrin] | 30.4 ± 1.9 |

Same assay, conditions: read-out: IC50 (DPP-IV inhibition); mean ± SD, N = 3

| IC50 [µM] | SMILES |
| --- | --- |
| 28.7 | COc1cc(OC)c(C(=O)/C=C/c2ccccc2)c(O)c1O [Compound 4, 2′,3′-dihydroxy-4′,6′-dimethoxychalcone] |
